Results from US20240392231A1, “BACTERIOLYSIS METHOD AND BACTERIA DETECTION METHOD” (ASAHI KASEI KABUSHIKI KAISHA, priority 2021, published 2024).

How the values were obtained:
[1] = tested on: Staphylococcus aureus (SA); assay: Bacteriolysis and immunochromatographic detection, test line intensity by image processing; format: cell-based
Description: (§1) Escherichia coli (EC) was selected as the Gram-negative bacteria and Staphylococcus aureus (SA) as the Gram-positive bacteria, and each was dissolved in saline to prepare a solution with a concentration of 1e5 cfu/ml. Normal saline was also used as the bacteria-free solution.
(§2) 0.1M Tris-HCl (pH 7.4) buffer was mixed with 2.0 μg/ml of lysostaphin enzyme (the final concentration after mixing with the bacterial solution for evaluation (sample) was 1.0 μg/ml) and 0.2 mass % Tween20 for immunochromatographic development and used as a mother solution to prepare various reaction solutions with DDAO concentrations of from 0 to 0.5 mass % (the final concentrations after mixing with the bacterial solution for evaluation (sample) were 0 to 0.25 mass %) or benzalkonium chloride concentrations of 0 to 0.5 mass % (the final concentrations after mixing with the bacterial solution for evaluation (sample) were 0 to 0.25 mass %).
(§3) Bacterial lysis and detection performance by antigen-antibody reaction were evaluated by inserting the immunochromatographic test strip prepared in Example 1 into a 1:1 mixture of the bacterial solution for evaluation and the various reaction solutions described above. The evaluation was made by photographing the test line area with a camera and quantifying the degree of redness of the test line area due to gold colloids via image processing (from the RGB values, the G value was used as indicating the red absorption. This is indicated as “test line intensity” in the graphs below). A higher test line intensity indicates a higher degree of redness, and a test line intensity of 10 or higher is considered visually positive.
To see the effect of lysostaphin, Staphylococcus aureus (SA) was dissolved in saline to prepare a solution with a concentration of 1e6 cfu/ml. Normal saline was also used as the bacteria-free solution.
0.1M Tris-HCl (pH 7.4) buffer was mixed with DDAO at a concentration 0.15 mass % (the final concentration after mixing with the bacterial solution for evaluation (sample) was 0.075 mass %) or benzalkonium chloride at a concentration of 0.05 mass % (the final concentration after mixing with the bacterial solution for evaluation (sample) was 0.025 mass %) as well as 0.2 mass % of Tween20 for immunochromatographic development and used as a mother solution to prepare various reaction solutions with lysostaphin enzyme concentrations of 0 to 50 μg/ml (the final concentration after mixing with the bacterial solution for evaluation (sample) were 0 to 25 μg/ml).
Bacterial lysis and detection performance by antigen-antibody reaction (test line intensity) were evaluated by inserting the immunochromatographic test strip prepared in Example 1 into a 1:1 mixture of the bacterial solution for evaluation and the various reaction solutions described above.

[2] = tested on: Escherichia coli (EC); assay: as above; format: cell-based
Description: as §1, §2, §3

lysostaphin: bacteriolysis enzyme, protein hydrolysis enzyme
test line intensity SA ([1]; lysostaphin final concentration exceeding 0.01 μg/ml, DDAO 0.075 mass %, 1e6 cfu/ml, FIG. 4): high test line intensity | test line intensity SA ([1]; lysostaphin final concentration exceeding 0.01 μg/ml, benzalkonium chloride 0.025 mass %, 1e6 cfu/ml, FIG. 5): high test line intensity

CCCCCCCCCCCC[N+](C)(C)[O-] [DDAO, N,N-dimethyldodecylamine N-oxide]
test line intensity EC ([2]; higher final concentrations of DDAO vs absence of DDAO, lysostaphin 1.0 μg/ml, 1e5 cfu/ml, FIG. 2): higher test line intensities | test line intensity SA ([1]; final DDAO 0 to 0.05 mass %, lysostaphin 1.0 μg/ml, 1e5 cfu/ml, FIG. 2): increased | test line intensity SA ([1]; final DDAO above 0.1 mass %, lysostaphin 1.0 μg/ml, 1e5 cfu/ml, FIG. 2): decreased | test line intensity SA ([1]; final DDAO between 0.05 and 0.1 mass %, lysostaphin 1.0 μg/ml, 1e5 cfu/ml, FIG. 2): remained almost constant

benzalkonium chloride
test line intensity EC ([2]; final benzalkonium chloride exceeding 0.075 mass %, FIG. 3): decrease in test line intensity | bacteriolysis efficiency and test line intensity EC ([2]; final benzalkonium chloride up to 0.075 mass % vs none, lysostaphin 1.0 μg/ml, 1e5 cfu/ml, FIG. 3): higher bacteriolysis efficiency and test line intensity | test line intensity SA ([1]; final benzalkonium chloride 0 to 0.065 mass %, lysostaphin 1.0 μg/ml, 1e5 cfu/ml, FIG. 3): increased | test line intensity SA ([1]; final benzalkonium chloride exceeding 0.07 mass %, FIG. 3): decreased
